Activity calls are given as the source filed them. No cut-off for these calls is given here.
Assays:
[1] = tested on: C2C12; assay: Induction of osteogenic differentiation in mouse C2C12 cells assessed as ALP activity preincubated with compound in the presence of BMP-4 for 72 hrs followed by substrate addition and measured after 1 hrs by luminescence based assay; type: functional, cell-based; conditions: time 73.0 hrs
[2] = tested on: HEK293T; assay: Activation of BMP signaling in HEK293T cells expressing BRE-Vent2 luciferase reporter gene assessed as BRE activation by measuring increase in luciferase activity measured after 22 hrs in the presence of BMP-4 by dual-luciferase assay; type: cell-based; conditions: Homo sapiens, filed as activator
[3] = tested on: C2C12; assay: Induction of osteogenic differentiation in mouse C2C12 cells assessed as ALP activity preincubated with compound in the presence of BMP-4 for 72 hrs followed by substrate addition and measured after 1 hrs in the presence of BYL719 by luminescence based assay; type: functional, cell-based; conditions: time 73.0 hrs, DDE = dose-dependent effect
[4] = tested on: C2C12; assay: Induction of osteogenic differentiation in mouse C2C12 cells assessed as ALP activity preincubated with compound in the presence of BMP-4 for 72 hrs followed by substrate addition and measured after 1 hrs in the presence of PIK93 by luminescence based assay; type: functional, cell-based; conditions: time 73.0 hrs, DDE = dose-dependent effect
[5] = target: Casein kinase I isoform epsilon (Homo sapiens, UniProt P49674); assay: Inhibition of CK1epsilon (unknown origin)
Chain of Casein kinase I isoform epsilon (P49674 whole entry, canonical isoform): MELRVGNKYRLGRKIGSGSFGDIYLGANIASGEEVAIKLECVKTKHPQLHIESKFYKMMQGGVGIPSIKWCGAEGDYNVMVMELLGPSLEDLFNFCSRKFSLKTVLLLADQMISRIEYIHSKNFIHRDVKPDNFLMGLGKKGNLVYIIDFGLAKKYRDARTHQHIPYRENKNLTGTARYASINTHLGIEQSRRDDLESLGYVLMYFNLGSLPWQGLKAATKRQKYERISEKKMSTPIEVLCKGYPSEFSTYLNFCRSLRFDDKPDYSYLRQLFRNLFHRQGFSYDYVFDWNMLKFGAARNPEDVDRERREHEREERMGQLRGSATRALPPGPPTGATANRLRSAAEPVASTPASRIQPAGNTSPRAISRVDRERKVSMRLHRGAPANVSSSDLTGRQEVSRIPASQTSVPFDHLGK

[6] = target: T1, Phosphatidylinositol 4,5-bisphosphate 3-kinase catalytic subunit alpha isoform (Homo sapiens, UniProt P42336); assay: Inhibition of PI3Kalpha (unknown origin) at 10 uM relative to control
T1 sequence (P42336 whole entry, canonical isoform): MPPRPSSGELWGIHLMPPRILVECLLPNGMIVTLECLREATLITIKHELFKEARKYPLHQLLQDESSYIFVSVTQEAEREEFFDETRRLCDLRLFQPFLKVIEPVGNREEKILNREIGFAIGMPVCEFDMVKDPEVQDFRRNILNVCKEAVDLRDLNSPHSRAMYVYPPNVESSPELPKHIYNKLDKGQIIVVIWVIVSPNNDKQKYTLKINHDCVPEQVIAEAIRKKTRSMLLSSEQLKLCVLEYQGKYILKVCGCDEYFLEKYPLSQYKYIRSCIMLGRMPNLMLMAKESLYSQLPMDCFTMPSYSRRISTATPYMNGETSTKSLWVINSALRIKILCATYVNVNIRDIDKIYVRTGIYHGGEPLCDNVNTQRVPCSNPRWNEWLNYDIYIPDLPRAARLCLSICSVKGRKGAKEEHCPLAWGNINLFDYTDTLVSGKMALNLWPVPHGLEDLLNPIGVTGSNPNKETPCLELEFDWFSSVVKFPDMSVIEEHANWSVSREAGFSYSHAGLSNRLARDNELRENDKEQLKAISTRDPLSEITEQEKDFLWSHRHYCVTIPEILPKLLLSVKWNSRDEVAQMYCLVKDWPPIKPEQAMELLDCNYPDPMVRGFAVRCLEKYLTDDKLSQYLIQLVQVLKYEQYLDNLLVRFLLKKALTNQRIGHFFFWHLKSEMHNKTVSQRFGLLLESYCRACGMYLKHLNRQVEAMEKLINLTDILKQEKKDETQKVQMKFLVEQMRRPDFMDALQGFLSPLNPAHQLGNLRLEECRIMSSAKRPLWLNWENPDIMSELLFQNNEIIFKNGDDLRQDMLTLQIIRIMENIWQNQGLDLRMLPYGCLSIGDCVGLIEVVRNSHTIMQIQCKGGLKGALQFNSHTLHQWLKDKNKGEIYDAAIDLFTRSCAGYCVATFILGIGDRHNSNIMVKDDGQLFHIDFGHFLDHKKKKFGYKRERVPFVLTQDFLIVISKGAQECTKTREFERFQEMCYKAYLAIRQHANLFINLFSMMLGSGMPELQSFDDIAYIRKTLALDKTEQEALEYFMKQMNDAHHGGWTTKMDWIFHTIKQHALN

[7] = target: Casein kinase I isoform delta (Homo sapiens, UniProt P48730); assay: Inhibition of CK1delta (unknown origin)
[8] = target: T2, Phosphatidylinositol 4,5-bisphosphate 3-kinase catalytic subunit delta isoform (Homo sapiens) (UniProt O00329); assay: Inhibition of PI3Kdelta (unknown origin) at 10 uM relative to control
T2 sequence (whole entry): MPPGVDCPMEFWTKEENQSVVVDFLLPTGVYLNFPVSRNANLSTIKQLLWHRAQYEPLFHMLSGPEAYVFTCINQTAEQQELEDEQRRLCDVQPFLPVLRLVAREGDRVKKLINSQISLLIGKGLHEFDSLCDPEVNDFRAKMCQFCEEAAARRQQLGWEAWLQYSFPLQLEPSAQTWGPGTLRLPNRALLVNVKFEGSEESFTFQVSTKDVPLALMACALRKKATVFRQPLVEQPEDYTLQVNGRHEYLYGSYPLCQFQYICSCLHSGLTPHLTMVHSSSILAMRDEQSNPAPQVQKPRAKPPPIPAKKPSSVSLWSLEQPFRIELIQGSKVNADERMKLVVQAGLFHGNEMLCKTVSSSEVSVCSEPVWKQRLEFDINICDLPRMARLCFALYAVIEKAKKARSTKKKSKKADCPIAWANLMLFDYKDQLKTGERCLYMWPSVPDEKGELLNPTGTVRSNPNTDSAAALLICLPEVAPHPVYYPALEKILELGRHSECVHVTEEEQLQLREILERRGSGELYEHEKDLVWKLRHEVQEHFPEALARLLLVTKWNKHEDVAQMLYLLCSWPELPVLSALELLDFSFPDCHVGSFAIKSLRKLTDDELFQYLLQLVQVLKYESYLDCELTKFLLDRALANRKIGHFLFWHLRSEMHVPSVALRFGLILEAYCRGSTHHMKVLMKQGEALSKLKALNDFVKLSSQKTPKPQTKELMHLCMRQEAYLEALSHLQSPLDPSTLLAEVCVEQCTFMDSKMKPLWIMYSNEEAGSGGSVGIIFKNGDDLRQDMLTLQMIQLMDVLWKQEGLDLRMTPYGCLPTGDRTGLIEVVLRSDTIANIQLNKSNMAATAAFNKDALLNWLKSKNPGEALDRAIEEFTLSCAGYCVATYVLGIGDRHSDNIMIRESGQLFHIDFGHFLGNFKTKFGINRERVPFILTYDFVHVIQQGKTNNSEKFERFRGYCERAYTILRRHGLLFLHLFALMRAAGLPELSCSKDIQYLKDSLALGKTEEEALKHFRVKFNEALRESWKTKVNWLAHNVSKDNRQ

[9] = target: T3, Phosphatidylinositol 4,5-bisphosphate 3-kinase catalytic subunit beta isoform (Homo sapiens, UniProt P42338); assay: Inhibition of PI3Kbeta (unknown origin)
Target sequence in this assay (P42338 whole entry, canonical isoform): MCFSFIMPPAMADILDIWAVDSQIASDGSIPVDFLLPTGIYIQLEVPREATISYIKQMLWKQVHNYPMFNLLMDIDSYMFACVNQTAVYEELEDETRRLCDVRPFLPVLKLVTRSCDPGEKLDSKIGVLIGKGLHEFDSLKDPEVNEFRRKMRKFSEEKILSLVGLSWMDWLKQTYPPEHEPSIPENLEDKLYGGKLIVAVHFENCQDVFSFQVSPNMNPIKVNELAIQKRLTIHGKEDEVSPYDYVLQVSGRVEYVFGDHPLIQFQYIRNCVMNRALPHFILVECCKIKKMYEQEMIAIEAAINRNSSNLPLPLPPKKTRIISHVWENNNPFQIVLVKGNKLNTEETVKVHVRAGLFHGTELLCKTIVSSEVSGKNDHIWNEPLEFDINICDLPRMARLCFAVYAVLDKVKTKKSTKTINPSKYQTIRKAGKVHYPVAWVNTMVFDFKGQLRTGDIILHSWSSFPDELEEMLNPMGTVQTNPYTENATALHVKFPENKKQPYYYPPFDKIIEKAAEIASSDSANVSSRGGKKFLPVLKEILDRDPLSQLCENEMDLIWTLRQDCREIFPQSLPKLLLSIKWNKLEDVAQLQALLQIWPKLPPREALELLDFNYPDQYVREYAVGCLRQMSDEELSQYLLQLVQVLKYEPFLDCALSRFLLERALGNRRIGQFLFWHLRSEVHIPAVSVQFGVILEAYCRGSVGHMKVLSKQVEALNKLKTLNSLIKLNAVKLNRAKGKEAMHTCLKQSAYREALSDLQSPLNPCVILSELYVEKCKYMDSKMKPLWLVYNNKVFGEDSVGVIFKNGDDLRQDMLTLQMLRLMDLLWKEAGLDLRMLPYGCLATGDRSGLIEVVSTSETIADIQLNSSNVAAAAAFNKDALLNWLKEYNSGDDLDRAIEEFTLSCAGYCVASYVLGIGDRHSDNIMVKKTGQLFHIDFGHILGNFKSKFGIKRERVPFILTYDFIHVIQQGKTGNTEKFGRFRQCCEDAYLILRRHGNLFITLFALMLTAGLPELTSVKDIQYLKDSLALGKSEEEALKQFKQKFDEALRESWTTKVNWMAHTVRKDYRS

[10] = target: DNA-dependent protein kinase catalytic subunit (Homo sapiens, UniProt P78527); assay: Inhibition of DNA-PK (unknown origin)
[11] = target: Casein kinase I isoform alpha (Homo sapiens, UniProt P48729); assay: Inhibition of CK1alpha (unknown origin)
Chain of Casein kinase I isoform alpha (P48729 whole entry, canonical isoform): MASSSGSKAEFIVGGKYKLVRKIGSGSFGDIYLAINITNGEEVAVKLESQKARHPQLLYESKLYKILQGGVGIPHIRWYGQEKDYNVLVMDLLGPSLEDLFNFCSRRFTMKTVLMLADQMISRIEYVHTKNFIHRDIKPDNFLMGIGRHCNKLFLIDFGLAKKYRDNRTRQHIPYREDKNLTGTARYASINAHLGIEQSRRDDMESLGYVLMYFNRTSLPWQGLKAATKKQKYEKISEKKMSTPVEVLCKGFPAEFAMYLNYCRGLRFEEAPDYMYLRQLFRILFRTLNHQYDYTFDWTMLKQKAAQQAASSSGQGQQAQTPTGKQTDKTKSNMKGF

[12] = target: T4, Phosphatidylinositol 4,5-bisphosphate 3-kinase catalytic subunit gamma isoform (Homo sapiens, UniProt P48736); assay: Inhibition of PI3Kgamma (unknown origin) at 10 uM relative to control
Target sequence in this assay (P48736 whole entry, looked up, canonical isoform): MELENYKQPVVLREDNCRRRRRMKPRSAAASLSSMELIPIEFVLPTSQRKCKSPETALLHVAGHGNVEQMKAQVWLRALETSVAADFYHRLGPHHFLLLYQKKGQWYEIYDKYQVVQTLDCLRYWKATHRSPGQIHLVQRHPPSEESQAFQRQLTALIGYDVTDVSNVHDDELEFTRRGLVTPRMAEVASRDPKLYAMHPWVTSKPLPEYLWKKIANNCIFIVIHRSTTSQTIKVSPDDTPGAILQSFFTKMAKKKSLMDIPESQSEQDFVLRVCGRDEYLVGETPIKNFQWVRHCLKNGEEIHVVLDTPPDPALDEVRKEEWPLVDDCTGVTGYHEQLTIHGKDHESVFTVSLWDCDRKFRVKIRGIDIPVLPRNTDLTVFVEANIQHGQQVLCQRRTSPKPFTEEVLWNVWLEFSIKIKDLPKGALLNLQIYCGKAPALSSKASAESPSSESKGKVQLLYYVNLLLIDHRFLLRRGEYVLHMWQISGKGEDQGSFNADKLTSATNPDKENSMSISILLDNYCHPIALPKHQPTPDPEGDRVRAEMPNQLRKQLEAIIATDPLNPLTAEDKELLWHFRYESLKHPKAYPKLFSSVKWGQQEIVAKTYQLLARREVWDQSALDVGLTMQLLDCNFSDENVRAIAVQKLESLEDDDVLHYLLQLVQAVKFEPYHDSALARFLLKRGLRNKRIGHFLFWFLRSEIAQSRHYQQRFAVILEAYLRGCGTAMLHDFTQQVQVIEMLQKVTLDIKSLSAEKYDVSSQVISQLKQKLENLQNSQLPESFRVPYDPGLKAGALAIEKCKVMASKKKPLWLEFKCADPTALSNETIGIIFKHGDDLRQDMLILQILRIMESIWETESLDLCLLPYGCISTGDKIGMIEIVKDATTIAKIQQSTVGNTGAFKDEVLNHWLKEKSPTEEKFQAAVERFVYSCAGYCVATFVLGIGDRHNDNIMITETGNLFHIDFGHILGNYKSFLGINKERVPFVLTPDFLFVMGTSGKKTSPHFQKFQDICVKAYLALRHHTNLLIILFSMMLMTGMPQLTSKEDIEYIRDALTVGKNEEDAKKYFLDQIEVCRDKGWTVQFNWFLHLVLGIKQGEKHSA

[13] = target: T5, Phosphatidylinositol 4,5-bisphosphate 3-kinase catalytic subunit delta isoform (Homo sapiens, UniProt O00329); assay: Inhibition of PI3Kdelta (unknown origin)
T5 sequence (O00329 whole entry): T2 sequence (whole entry)

[14] = target: T1, Phosphatidylinositol 4,5-bisphosphate 3-kinase catalytic subunit alpha isoform; assay: Inhibition of PI3Kalpha (unknown origin)
[15] = Inhibition of DMH-1 induced cardiogenesis in mouse embryonic stem cells transfected with Myh6-GFP pretreated with compound followed by DMH-1 stimulation for 24 hrs in the presence of BMP-4 with replacement of media on day 7 and 9 and measured after 11 days by DAPI-staining based assay; conditions: embryonic stem cell
[16] = target: Phosphatidylinositol 3-kinase catalytic subunit type 3 (Homo sapiens) (UniProt Q8NEB9); assay: Inhibition of VPS34 (unknown origin) at 10 uM relative to control
Chain of Phosphatidylinositol 3-kinase catalytic subunit type 3 (Homo sapiens) (Q8NEB9 whole entry, canonical isoform): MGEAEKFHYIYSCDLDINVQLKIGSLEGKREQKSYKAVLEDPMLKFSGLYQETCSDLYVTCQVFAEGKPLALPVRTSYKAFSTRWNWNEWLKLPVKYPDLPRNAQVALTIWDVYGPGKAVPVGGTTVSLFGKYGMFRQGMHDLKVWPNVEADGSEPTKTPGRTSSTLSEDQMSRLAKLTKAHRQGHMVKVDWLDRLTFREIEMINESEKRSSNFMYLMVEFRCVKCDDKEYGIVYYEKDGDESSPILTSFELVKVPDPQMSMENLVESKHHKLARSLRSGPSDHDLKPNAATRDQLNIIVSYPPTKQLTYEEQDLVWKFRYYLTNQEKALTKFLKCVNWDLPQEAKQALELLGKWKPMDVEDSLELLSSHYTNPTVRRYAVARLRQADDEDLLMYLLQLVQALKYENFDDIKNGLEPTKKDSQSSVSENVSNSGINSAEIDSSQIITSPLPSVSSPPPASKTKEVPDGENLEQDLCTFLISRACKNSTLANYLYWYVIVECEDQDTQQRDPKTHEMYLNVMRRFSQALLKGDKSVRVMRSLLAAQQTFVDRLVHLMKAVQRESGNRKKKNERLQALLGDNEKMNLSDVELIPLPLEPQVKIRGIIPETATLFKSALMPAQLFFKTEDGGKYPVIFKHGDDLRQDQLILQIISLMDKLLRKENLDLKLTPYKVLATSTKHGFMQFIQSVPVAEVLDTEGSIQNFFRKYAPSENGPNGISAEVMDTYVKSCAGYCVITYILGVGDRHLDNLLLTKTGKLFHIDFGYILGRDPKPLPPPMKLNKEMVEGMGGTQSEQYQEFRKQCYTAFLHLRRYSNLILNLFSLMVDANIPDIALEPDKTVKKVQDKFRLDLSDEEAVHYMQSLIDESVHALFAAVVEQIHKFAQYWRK

[17] = target: T4, Phosphatidylinositol 4,5-bisphosphate 3-kinase catalytic subunit gamma isoform; assay: Inhibition of PI3Kgamma (unknown origin)
Target sequence in this assay (P48736 whole entry, canonical isoform): as the sequence (P48736 whole entry, looked up, canonical isoform) above

[18] = target: T3, Phosphatidylinositol 4,5-bisphosphate 3-kinase catalytic subunit beta isoform; assay: Inhibition of PI3Kbeta (unknown origin) at 10 uM relative to control
Target sequence in this assay (P42338 whole entry, looked up, canonical isoform): as the sequence (P42338 whole entry, canonical isoform) above

[19] = tested on: C2C12; assay: Induction of osteogenic differentiation in mouse C2C12 cells assessed as ALP activity at 5 uM preincubated with compound in the presence of BMP-4 for 72 hrs followed by substrate addition and measured after 1 hrs by luminescence based assay relative to control; type: functional; conditions: time 73 hrs

Cc1nc(NC(=O)N2CCC[C@H]2C(N)=O)sc1-c1ccnc(C(C)(C)C(F)(F)F)c1
Activity [1]: Active

Nc1nc2ccc(F)cc2c2nc(-c3ccco3)nn12
Activity [1]: Active | Activity [2]: Active

Fc1cccc(-n2cnc3c(NCc4nc5c(F)c(F)ccc5[nH]4)nc(N4CCOCC4)nc32)c1
Activity [3]: Dde | Activity [4]: Dde

Nc1nc2ccc(Cl)cc2c2nc(-c3ccco3)nn12 [CGS-15943]
IC50 [5]: 490 nM | inhibition [6]: 86% | IC50 [7]: 240 nM | inhibition [8]: 34% | IC50 [9]: 8.48 µM | Activity [1]: Active | IC50 [10]: 140 nM | IC50 [11]: 820 nM | inhibition [12]: 96% | Activity [2]: Active | IC50 [13]: 970 nM | IC50 [14]: 1280 nM | IC50 [15]: 500 nM | inhibition [16]: 5% | IC50 [17]: 110 nM | inhibition [18]: 39% | Activity [19]: 290%

Nc1ccc2nc(N)n3nc(-c4ccco4)nc3c2c1
Activity [2]: Active

Nc1nc2ccc(O)cc2c2nc(-c3ccco3)nn12
IC50 [5]: > 10000 nM | inhibition [6]: 72% | IC50 [7]: 3640 nM | inhibition [8]: 11% | IC50 [11]: 6180 nM | inhibition [12]: 79% | Activity [2]: Active | inhibition [16]: 29% | inhibition [18]: 0% | Activity [19]: 184%

Nc1nc2ccc(Br)cc2c2nc(-c3ccco3)nn12
IC50 [5]: 380 nM | inhibition [6]: 80% | IC50 [7]: 120 nM | inhibition [8]: 75% | Activity [1]: Active | IC50 [11]: 220 nM | inhibition [12]: 93% | Activity [2]: Active | inhibition [16]: 6% | inhibition [18]: 27% | Activity [19]: 554%

Nc1nc2ccc(Cl)cc2c2nc(-c3ncco3)nn12
IC50 [5]: 2070 nM | inhibition [6]: 82% | IC50 [7]: 430 nM | inhibition [8]: 79% | Activity [1]: Active | IC50 [11]: 2920 nM | inhibition [12]: 91% | Activity [2]: Active | inhibition [16]: 10% | inhibition [18]: 29% | Activity [19]: 166%

Nc1nc2ccccc2c2nc(-c3ccco3)nn12
Activity [1]: Active | Activity [2]: Active

CC(=O)/N=c1/[nH]c(C)c(-c2ccc(Cl)c(S(=O)(=O)NCCO)c2)s1
Activity [1]: Active

— ChEMBL document CHEMBL5096233, “Phenotypic Discovery of Triazolo[1,5-c]quinazolines as a First-In-Class Bone Morphogenetic Protein Amplifier Chemotype” (J Med Chem, 2022)
